In patent US10509046B2, “Detection of indazole synthetic cannabinoids” (Randox Laboratories Limited, priority 2014, dated 2019):
Counter-ions that a name gives are not always drawn.

System: AB-PINACA antibody (raised against immunogen 2 of Example 6)
Assay: AB-PINACA ELISA, final validated kit with Tracer-2 (Example 10), specificity
Format: binding
Conditions: for % Cross-Reactivity: AB-PINACA N-Pentanoic acid = 100
Protocol: A microtitre plates was precoated with AB-PINACA antibody (raised against immunogen 2 of Example 6). Pinaca derivative (antigen), if present in the sample competes with the horseradish peroxidase labelled AB-PINACA (enzyme labelled antigen, herein Tracer-2 of Example 8) for a limited number of antibody sites on the microtitre plate. After incubation at room temperature to allow a competition reaction to take place, the microtitre plate was washed to remove excess reagents. The enzyme substrate ([…]) was added. After an incubation period to allow maximum colour development, the colour reaction was stopped by the addition of acid. This produces a colour change from blue to yellow, and the absorbances are read at 450 nm. A standard curve was then constructed to determine the Pinaca derivative's concentration in the sample.
All reagents were left to reach room temperature (+15 to +25° C.) prior to use. In order to minimise edge effects microtitre plate was sealed with an adhesive plate sealer.
The assay was performed in duplicate. The following layout was used for a test plate where each box represents 2 wells.
• a) The following was pipetted into the appropriate wells of the microtitre plate:
• b) The microtitre plate was gently tapped plate from side to side for a few seconds. • c) The microtitre plate was covered with a plate sealer before incubating for 30 minutes at room temperature (+15 to +25° C.) in the dark. • d) The plate was inverted and the liquid was tapped out. • e) The plate was washed 6 times with diluted wash buffer (ensuring all wells were filled), over a 10-15 minute period. After the final wash the liquid was discarded and the plate was tapped onto lint free tissue paper until completely dry. • f) Immediately after washing, 125 μL of the one shot substrate II solution was pipetted into each well using a multichannel pipette. The microtitre plate was gently tapped from side to side and incubated for (20±2 minutes) at room temperature (+15 to +25° C.) in the dark. • g) The colour reaction was stopped by the addition of 100 μL of stop solution per well. A colour change from blue to yellow should be evident. • h) The optical density was measured at 450 nm within 10 minutes of stopping the colour reaction. The use of a 630 nm filter is recommended as the reference wavelength, if available. Standard Curve and Interpretation of Results • a) The mean absorbance of the standards, controls and samples were calculated. • b) The absorbances of standards against log10 (standard concentration) were plotted. • c) The control and sample concentrations were read from the standard curve. • d) To obtain concentrations for urine samples in ng/mL, the results were multiplied by 3 to take into account the dilution factor. • e) To obtain concentrations for whole blood samples in ng/mL, the results were multiplied by 4 to take into account the dilution factor. • f) It is recommended that a 4 parameter curve fit method is used when generating the standard curve. Limits of Detection

SMILES	% Cross-Reactivity [%]	Concentration of compounds that elicit a negative response at the indicated concentration [ng/mL]
CC(O)CCCn1nc(C(=O)NC(C(N)=O)C(C)C)c2ccccc21 (stereo not shown) [4-Hydroxypentyl AB-PINACA, 1-(4-hydroxypentyl) AB-Pinaca]	85.2	
CC(C)(C)C(NC(=O)c1nn(CCCCCO)c2ccccc12)C(N)=O (stereo not shown)	15.2	
O=C(c1cccc2ccccc12)c1cn(CCCCCF)c2ccccc12 [AM-2201]		100
CCCCCn1cc(C(=O)c2ccc(OC)cc2)c2ccccc21 [RCS-4]	<1	
CC1(C)C(C(=O)c2cn(CCCCCF)c3ccccc23)C1(C)C [XLR-11]		100
CC(C)(C)C(NC(=O)c1nn(CCCCCF)c2ccccc12)C(N)=O (stereo not shown) [5-Fluoro ADB-PINACA]	9.8	
COc1ccccc1CC(=O)c1cn(CCCCCC(=O)O)c2ccccc12 [JWH-250 N-(5-Carboxypentyl)]		100
CCCCn1cc(C(=O)c2cccc3ccccc23)c2ccccc21 [JWH-073]		100
CCCCCn1cc(C(=O)NC(C(N)=O)C(C)(C)C)c2ccccc21 (stereo not shown) [ADBICA]	0.7	
CCCCCn1cc(C(=O)c2cccc3ccccc23)c2ccccc21 [JWH-018]		100
CCCCCn1cc(C(=O)c2cccc3ccccc23)c2cc(O)ccc21 [JWH-018 5-Hydroxyindole]		100
CC1(C)C(C(=O)c2cn(CCCCC(=O)O)c3ccccc23)C1(C)C [UR-144 N-Pentanoic acid]		100
N#CCCCCn1cc(C(=O)c2cccc3ccccc23)c2ccccc21 [AM-2232]		100
O=C(c1cccc2ccccc12)c1cn(CCCCCO)c2ccccc12 [JWH-018 N-(5-Hydroxypentyl)]		100
CNC(=C[N+](=O)[O-])NCCSCc1ccc(CN(C)C)o1 [Ranitidine HCl]		10000
CCCCCn1nc(C(=O)NC23CC4CC(CC(O)(C4)C2)C3)c2ccccc21 [3-OH AKB-48]	<1	
CCCCCn1cc(C(=O)Oc2cccc3cccnc23)c2ccccc21 [PB-22]		100
O=C(O)CCCCn1cc(C(=O)NC23CC4CC(CC(C4)C2)C3)c2ccccc21 [SDB-001 N-Pentanoic acid]	<1	
CC(C)NCC(O)COc1cccc2ccccc12 (stereo not shown) [Propranolol HCL]		10000
CC(C)(C)C(NC(=O)c1nn(CCCCC(=O)O)c2ccccc12)C(N)=O (stereo not shown) [ADB-PINACA pentanoic acid metabolite]	32.8	
CCCCCn1c(C)c(C(=O)c2cccc3ccccc23)c2ccccc21 [JWH-007]		100
O=C(O)c1cn(CC2CCCCC2)c2ccccc12 [BB-22 3-Carboxyindole metabolite]		100
O=C(O)CCCCn1cc(C(=O)Oc2cccc3cccnc23)c2ccccc21 [PB-22 N-Pentanoic acid]	<1	
O=C(Oc1cccc2cccnc12)c1cn(CCCCCO)c2ccccc12 [PB-22 N-(5-hydroxypentyl) metabolite]	<1	
CCCCCn1nc(C(=O)NC(C(=O)O)C(C)C)c2ccccc21 (stereo not shown) [AB-PINACA carboxylic acid]	<1	
CCCCn1cc(C(=O)c2cccc3ccccc23)c2cc(O)ccc21 [JWH-073 5-Hydroxyindole]		100

SMILES	% Cross-Reactivity [%]	Concentration of compounds that elicit a negative response at the indicated concentration [ng/mL]
O=C(O)CCCCn1nc(C(=O)NC23CC4CC(CC(C4)C2)C3)c2ccccc21 [AKB48 N-Pentanoic acid metabolite]	<1	
COc1ccccc1CC(=O)c1cn(CCCCCO)c2ccccc12 [JWH-250 N-(5-Hydroxypentyl)]		100
CCCCCn1cc(C(=O)NC23CC4CC(CC(O)(C4)C2)C3)c2ccccc21 [3-OH SDB-001]	<1	
COc1cccc2c(C(=O)N[C@@H]3C(C)(C)[C@@H]4CC[C@@]3(C)C4)cn(CCN3CCOCC3)c12 [MN-25]	<1	
CCCCCn1cc(C(=O)Cc2ccccc2Cl)c2ccccc21 [JWH-203]		100
O=C(c1ccccc1I)c1cn(CCCCCF)c2ccccc12 [AM-694]		100
CC(O)CCCn1nc(C(=O)NC23CC4CC(CC(C4)C2)C3)c2ccccc21 (stereo not shown) [AKB48 N-(4-hydroxypentyl) metabolite]	<1	
CN(C)C(=N)N=C(N)N [Metformin HCl]		10000
O=C(c1cn(CCCCCO)c2ccccc12)C12CC3CC(CC(C3)C1)C2 [AB-001 N-Pentanol]	<1	
O=C(NC12CC3CC(CC(C3)C1)C2)c1nn(CCCCCO)c2ccccc12 [AKB48 N-(5-hydroxypentyl) metabolite]	<1	
O=C(Oc1cccc2cccnc12)c1cn(CCCCCF)c2ccccc12 [5-fluoro PB-22]		100
CCCCCn1cc(C(=O)Nc2cccc3ccccc23)c2ccccc21 [NNEI]		100
CCCCCn1cc(C(=O)c2ccc(Cl)c3ccccc23)c2ccccc21 [JWH-398]		100
COc1ccccc1CC(=O)c1cn(CCC2CCCCC2)c2ccccc12 [RCS-8]		100
CCCn1c(C)c(C(=O)c2cccc3ccccc23)c2ccccc21 [JWH-015]		100
O=C(c1cccc2ccccc12)c1cn(CCCCCF)c2cc(O)ccc12 [AM-2201 6-Hydroxyindole]		100
O=C(NC12CC3CC(CC(C3)C1)C2)c1cn(CCCCCF)c2ccccc12 [STS-135]		100
CC1(C)C(C(=O)c2cn(CC3CCOCC3)c3ccccc23)C1(C)C [Hapten A-834735]		100
CCCCCn1cc(C(=O)c2ccc(CC)c3ccccc23)c2ccccc21 [JWH-210]		100
CCCCCn1cc(C(=O)O)c2ccccc21 [PB-22 3-Carboxyindole metabolite]		100
CCCCn1cc(C(=O)c2cccc3ccccc23)c2c(O)cccc21 [JWH-073 4-Hydroxyindole]		100
O=C(Oc1cccc2cccnc12)c1cn(CC2CCCCC2)c2ccccc12 [BB-22]		100
O=C(c1cccc2ccccc12)c1cn(CCCCO)c2ccccc12 [JWH-073 N-Butanol]		100
CCCCCn1cc(C(=O)c2ccc(OC)c3ccccc23)c2ccccc21 [JWH-081]		100
O=C(c1cccc2ccccc12)c1cn(CCN2CCOCC2)c2ccccc12 [JWH-200]		100
CCCCCn1cc(C(=O)C2C(C)(C)C2(C)C)c2ccccc21 [UR-144]		100
